Data reported in patent US9623065B2, “Kind of polygonum capitatum extract, its application and a preparation containing the polygonum capitatum extract” (Zhejiang Sanzheng Biotechnology Co., Ltd., priority 2013, dated 2017).

Columns and labels:
[1] = test system: 3T3-L1 adipocyte IR model; test: Influence of glucose utilization on the 3T3-L1 adipocyte insulin resistance (IR) model; format: cell-based, mouse
Experimental: 3T3-L1 mouse embryonic fibroblast cells, are derived from the Institute of Life Science of Chinese Academy of Sciences. Plant the 3T3-L1 preadipocytes into the 25 cm2 cell culture plate, add 6 ml normal culture medium, keep it at culture conditions of 37° C. and 5% CO2, change liquid in the next day. Pass or store it in freezing conditions after the 80% cell fused.
Inoculate the 3T3-L1 preadipocytes at the density of 5×10^3 in a 24-hole culture plate, wait until the cells grow to contact inhibition, replace the cell culture medium with differentiation liquid A (0.5 mmol/L IBMX, 0.1 umol/L DEX, 10 mg/L INS) and culture them for 48 h, then replace with the induction differentiation liquid (10 mg/L) to continuously culture for 48 h B, change the normal culture medium to continue culturing, and change the liquid once every 2 days, 90% of the above induced differentiation cells will have a mature phenotype after 6-8 days.
After counting the 3T3-L1 cells in logarithmic growth phase, inoculate them at the density of 5*10^3 each hole onto 24-hole culture plate, then put the culture plate into the CO2 incubator, under the conditions of a temperature of 37° C., 5% CO2 and saturated humidity, culture them to growth inhibition, induction differentiation to mature adipocytes. Add the following processing factors: • The control group shall be continued with their normal culture medium (DMEM high glucose culture liquid containing 10% FBS) • The model group shall be given 1 umol DEX normal culture medium; • Other cells shall be used in each drug group experiment
After counting the 3T3-L1 cell in logarithmic growth phase, inoculate each hole with density of 5×10^3 cells in 24-hole culture plate. According to the IR models preparation method of 2.3, divide the mature 3T3-L1 adipocytes into a normal culture group and model group, the model group can also be divided into a model control group and each drug group. The model group shall be given 1 umol DEX to react for 48 h. After the models are built, administer the drug as per the experimental groups and the concentration of drug, in 3 parallel plates. In 24 h, 48 h the cell morphologies shall be observed and take the supernatant to be tested on the semi automatic biochemical instrument, determine the glucose (GLU) content in the culture solution according to the descriptions of the kit.

[2] = test system: alloxan hyperglycemia model mice; test: Blood glucose of alloxan hyperglycemia model mice, comparison of extraction methods (Test Case 4); format: in vivo, KM mice; details: dose 0.5 mg, fasting
Experimental: Take 460 KM mice, with a weight of (20±2) g, half male and half female, let them to adapt to the environment for 7 days. Randomly select 6 male mice and 6 female mice as the blank control group, keep them fasted but water is supplied to them for 18 hours, use the physiological saline to prepare the 1.1% alloxan, and store it in an ice water bath. Carry out the intraperitoneal injection according to the ratio of 110 mg/kg, the control group is injected with the isodose physiological saline, let them eat after 1 h recovery. Use the same modeling method in the second day. 3 days later (72 h, normal diet), then fasting 12 hours, and then cut their tails to take a few drops of blood, and then fasting blood glucose is measured with glucose oxidase method, the mice with the blood glucose value greater than 11.1 mmol/L are the mice that successfully modeled.
Among the 460 KM mice, 12 of them belong to the blank control group, the remaining mice are used to modeling. After the modeling the mice with the blood glucose values measured greater than 11.1 mmol/L. In the design process each experimental group has 12 mice.
Take the model mice, randomly divide then into 16 groups, namely the water extraction (high, medium and low) dose group, the alcohol extraction (high, medium and low) dose group, the water and alcohol extraction (high, medium and low) dose group, the modeling group, positive group and blank control group (normal mice), please refer to Table 1.
Use surgical scissors to cut 2-3 mm of a mouse tail, press the tail to take a few drops of blood and place in the EP tube, first add 12 μL 15 g/L bipotassium EDTA solution, high speed centrifuge it (10000 r/min) for 5 min. Wait till the blood is stratified, take the upper layer serum 10 μL, plus 30 μL physiological saline, shake it evenly; and take 10 μL the dilute serum and put into a EP tube, add 1 mL glucose (Glu) oxidase, shake it evenly, keep at 37° C. for 15 min, the sample (U) is to be measured. Then take the physiological saline and calibrator (c) 10 μL respectively, add 1 mL glucose oxidase, shake evenly, keep at 37° C. for 15 min, determine the absorbance (A) with 505 nm wavelength after adjusting the blank tube to zero. […]
(§1) This experiment adopts the GOD-POD method for determination of serum glucose concentration, the principle of this method is POD in serum glucose is oxidized into D-gluconic acid in the presence of GOD, and generate H2O2; the latter and 4-amino antipyrine and phenol form red benzophenone imine under the effect of peroxidase (POD) benzophenone imine, the depth of the color of the ketone compounds is directly proportional to the content of glucose. Determine the absorbance values of the standard tube and the sample tube respectively, and then calculate the content of glucose.

[3] = test system: alloxan hyperglycemia model mice; test: Efficacy test of tablet, oral liquid, capsule, granules in alloxan hyperglycemia model mice (Test Cases 5-8); format: in vivo, KM mice; details: dose 0.5 mg
Experimental: Take 80 KM mice, with a body weight of (20+2) g, half male and half female, and let them to adapt to the environment for 7 days. Randomly select 6 male mice and female mice as the blank control group, fasted and supplied with water for 18 h. Prepare 1.1% alloxan with physiological saline, and keep it in ice water bath. Carry out intraperitoneal injection according to a dose of 110 mg/kg, the mice of the control group are to be injected with physiological saline, and then fast them 12 hours, use the same modeling method in the second day. 3 days later (72 h, restore to normal diet), then fast 12 h, and then cut the tail to take a few drops of blood. The fasting blood glucose was measured with glucose oxidase method. The mice that have a blood glucose value greater than 11.1 mmol/L are mice that have been successfully modeled.
Among the 80 KM mice, 12 are as the blank control group, the remaining mice are used to modeling. After modeling, find the mice with the blood glucose values measured more than 11.1 mmol/L. In the experiment design process each group is set with 12 mice, the number of female mice are larger in the experimental results, so the number of female mice designed a dose is 6-8 only (8 with only statistical significance), the tails of some of the male model mice may be damaged, which is not conducive to the blood sampling in the next step, therefore it is not designed in this experimental group.
Use surgical scissors to cut 2-3 mm of a mouse tail, press the tail to take a few drops of blood and place in the EP tube, first add 12 μL 15 g/L bi-potassium EDTA solution, high speed centrifuge it (10000 r/min) for 5 min. Wait till the blood is stratified, take the upper layer serum 10 μL, plus 30 μL physiological saline, shake it evenly; and take 10 μL the dilute serum and put into a EP tube, add 1 mL glucose (Glu) oxidase, shake evenly, keep at 37° C. for 15 min, the sample (U) is to be measured. Then take the physiological saline and calibrator (c) 10 μL respectively, add 1 mL glucose oxidase, shake it evenly, keep at 37° C. for 15 min, determine the absorbance (A) with 505 nm wavelength after adjusting the blank tube to zero. Sample Glu (mmol/L)=Au/Ac*Cc
Determine the fasting blood glucose values corresponding to the administration of 7 d, 14 d, 21 d and 28 d after the success of modeling (fasted but water is supplied for 12 h).
as §1

Compound: CN(CCOc1ccc(CC2SC(=O)NC2=O)cc1)c1ccccn1 (stereo not shown) [ROG]
- Average 24 h GLU content ([1]; 3.125 ug/ml, first series): 22.24 mmol/L
- Average 48 h GLU content ([1]; 3.125 ug/ml, first series): 20.46 mmol/L
- Average 24 h GLU content ([1]; 12.5 ug/ml, first series): 22.04 mmol/L
- Average 48 h GLU content ([1]; 12.5 ug/ml, first series): 21.67 mmol/L
- Average 24 h GLU content ([1]; 50 ug/ml, culture supernatant, first series (model control 23.08)): 21.84 mmol/L
- Average 48 h GLU content ([1]; 50 ug/ml, culture supernatant, first series (model control 22.18)): 20.53 mmol/L
- Average 24 h GLU content ([1]; 100 ug/ml, second series (model control 27.72)): 25.38 mmol/L
- Average 48 h GLU content ([1]; 100 ug/ml, second series (model control 26.27)): 24.64 mmol/L

Compound: C[C@H]1O[C@H](O[C@H]2[C@H](O)[C@@H](O)[C@@H](O[C@H]3[C@H](O)[C@@H](O)C(O)O[C@@H]3CO)O[C@@H]2CO)[C@H](O)[C@@H](O)[C@@H]1N[C@H]1C=C(CO)[C@@H](O)[C@H](O)[C@H]1O (stereo partly shown) [Acarbose]
- Blood glucose level 7 d ([2]; 7 d): 19.23 ± 7.54 mmol/L
- Blood glucose level 14 d ([2]; 14 d): 18.00 ± 6.99 mmol/L
- Blood glucose level 21 d ([2]; 21 d): 19.99 ± 6.69 mmol/L
- Blood glucose level 28 d ([2]; 28 d): 22.81 ± 7.72 mmol/L
- Blood glucose level 7 d ([3]; Table 8): 19.23 ± 7.54 mmol/L
- Blood glucose level 14 d ([3]; Table 8): 18.00 ± 6.99 mmol/L
- Blood glucose level 21 d ([3]; Table 8): 19.99 ± 6.69 mmol/L
- Blood glucose level 28 d ([3]; Table 8): 22.81 ± 7.72 mmol/L
- Blood glucose level 7 d ([3]; Table 9): 19.23 ± 7.54 mmol/L
- Blood glucose level 14 d ([3]; Table 9): 18.00 ± 6.99 mmol/L
- Blood glucose level 21 d ([3]; Table 9): 19.99 ± 6.69 mmol/L
- Blood glucose level 28 d ([3]; Table 9): 22.81 ± 7.72 mmol/L
- Blood glucose level 7 d ([3]; Table 10, in mmol/L): 19.23 ± 7.54
- Blood glucose level 14 d ([3]; Table 10, in mmol/L): 18.00 ± 6.99
- Blood glucose level 21 d ([3]; Table 10, in mmol/L): 19.99 ± 6.69
- Blood glucose level 28 d ([3]; Table 10, in mmol/L): 22.81 ± 7.72
- Blood glucose level 7 d ([3]; Table 11, in mmol/L): 19.23 ± 7.54
- Blood glucose level 14 d ([3]; Table 11, in mmol/L): 18.00 ± 6.99
- Blood glucose level 21 d ([3]; Table 11, in mmol/L): 19.99 ± 6.69
- Blood glucose level 28 d ([3]; Table 11, in mmol/L): 22.81 ± 7.72
